We go through six molecules from BindingDB's records for doi:10.1016/j.bmcl.2012.03.106 (Syngenta Crop Protection Muenchwilen, 2012).

A word on the pIC50: it is the negative decadic logarithm of the IC50, by convention in mol/L. A higher pIC50 goes with a small IC50.

pIC50: −log10 of the molar value.

The nature of this experiment: Displacement of [3H]-Tritium-N-(4-chloro-2-methyl-6-(methylcarbamoyl)phenyl)-1-(3-chloropyridin-2-yl)-3-(trifluoromethyl)-1H-pyrazole-5-carboxamide from Myzus persicae (green peach aphid) ryanodine receptor. For orientation: Displacement assays read how much labelled ligand stays bound in the presence of the test substance.
`Cc1cc(C#N)cc(C(=O)NC(C)(C)CS(C)(=N)=O)c1NC(=O)c1cc(Br)nn1-c1ncccc1Cl` (stereo unspecified) gave a negative logarithm of the IC50 (pIC50) of 4.73.

As to `CNC(=O)c1cc(C#N)cc(C)c1NC(=O)c1cc(Br)nn1-c1ncccc1Cl` [CYANTRANILIPROLE], the pIC50 was 5.68.

Consider `Cc1cc(C(F)(C(F)(F)F)C(F)(F)F)ccc1NC(=O)c1cccc(I)c1C(=O)NC(C)(C)CS(C)(=O)=O` [CHEBI:38798], for which the pIC50 is 4.08.

Molecule `CNC(=O)c1cc(Cl)cc(C)c1NC(=O)c1cc(Br)nn1-c1ncccc1Cl` [3-bromo-N-(4-chloro-2-methyl-6-(methylcarbamoyl)phenyl)-1-(3-chloropyridin-2-yl)-1H-pyrazole-5-carboxamide] showed a negative logarithm of the IC50 (pIC50) of 5.38.

For `Cc1cc(Cl)cc(C(=O)NC(C)(C)CS(C)(=O)=NC#N)c1NC(=O)c1cc(C(F)(F)F)nn1-c1ncccc1Cl` (stereo unspecified), the pIC50 was 5.31.

`Cc1cc(C#N)cc(C(=O)NC(C)(C)CS(C)(=O)=NC#N)c1NC(=O)c1cc(Br)nn1-c1ncccc1Cl` (stereo unspecified) showed a pIC50 of 5.09.
